One data set relates to HCT-116 p53−/− cells. The data set can be described thus: γH2AX foci staining to indicate DNA damage (genotoxicity). Format: cell-based. On the procedure:
FIG. 1. TMPK knockdown has no genotoxicity but promoting doxorubicin-induced cell death in p53 proficient and deficient colon cancer cells. […] These cells were fixed for γH2AX foci staining to indicate DNA damage and Western blotting analysis. (B-C) FITC-labeled annexin V apoptosis assay. (B) p53(+/+) HCT-116 were and (−/−) HCT-116 cells were infected with or without lentiviral TMPK^shRNA for 72 hr, treated with 0.5 μM doxorubicin for 24 hr (C) Cells were with or without lentiviral TS^shRNA for 72 hr with a subsequent 1 μM doxorubicin treatment for 24 hr as indicated Cells were then stained with FITC-labeled annexin V and observed by fluorescent microscopy. Green-positive indicates apoptotic cell.
For γH2AX staining, cells were fixed with 4% paraformaldehyde for 30 min at room temperature and were incubated with TBS (50 mM Tris-HCl, pH 7.4, 150 mM NaCl) plus 0.3% Triton X-100 for 5 min. The coverslips were blocked with MAXblock™ (Active Motif) for 1 h at 37° C., followed by staining with primary antibodies: anti-γH2AX monoclonal antibody (1:1000), anti-Rad51 polyclonal
To understand the differential DNA damage effect of blocking thymidylate kinase (TMPK) and thymidylate synthase (TS) in colon cancer cells. TMPK or TS expression was depleted in colon cancer cells, HCT-116 p53^−/−, by infection with lentivirus expressing corresponding shRNA. […]

For data set [1], the target named is T1, hTMPK (Homo sapiens, UniProt P23919).
T1 sequence (P23919 1-212): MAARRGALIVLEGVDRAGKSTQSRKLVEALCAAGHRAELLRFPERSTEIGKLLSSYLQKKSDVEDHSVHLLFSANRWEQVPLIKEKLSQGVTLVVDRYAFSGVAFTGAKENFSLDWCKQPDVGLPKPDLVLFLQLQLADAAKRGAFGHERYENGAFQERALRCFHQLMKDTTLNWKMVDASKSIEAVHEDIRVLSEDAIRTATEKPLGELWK
The data set can be described thus: In vitro inhibitory activity against human TMPK at 2 μM. The data set is classed as biochemical. The following applies: test compounds at 2 μM concentration. On the procedure:
(§1) The TMPK reaction was started by adding purified hTMPK in 50 μl of TMPK assay buffer (100 mM Tris-HCl, pH 7.5, 100 mM KCl, 10 mM MgCl2, 50 μM ATP and 100 μM dTMP) in 96 wells plate at 25° C. for 10 min and terminated by adding 200 μl of DTNB (100 μM), followed by transferring 10 μl of reaction solution to a white 96-wellplate containing 90 μl of luciferase assay buffer (50 mM Glycine, 0.5 mM EDTA and 5 mM EDTA, pH 7.0, 0.1 μg of luciferase, 50 μM luciferin and 0.1% BSA). The luminescence was measured with a luminescence counter (Packard).
(§2) All reactions were performed in 96-well plates in an assay volume of 100 μl. The activity of hTMPK was measured at 25° C. using a modified NADH coupled colorimetric assay as described (Agarwal et al., 1978; Miyata et al., 2003; Ostermann et al., 2003), in which purified hTMPK was added to the buffer containing 100 mM Tris-HCl, pH 7.5, 100 mM KCl, 10 mM MgCl2, 0.5 mM phosphoenol pyruvate, 0.25 mM NADH, 5 units of lactate dehydrogenase, 4 units of pyruvate kinase, 1 mM ATP, and 200 μM dTMP. The change of NADH was measured by reading the absorbance at 340 nm. One unit of TMPK activity is defined as the conversion of […] of TMP to TDP per minute.
The in vitro inhibitory activities of test compounds (at 2 μM concentration) against human TMPK are shown in Table 3 and compared with that of YMU1 and YMU2.

For data set [2], the target named is T1, hTMPK. The data set is described as follows: IC50 determination by enzymatic assay. Format: biochemical. As for the experimental part:
as §1, §2
In one embodiment, the IC50 values were determined by enzymatic assay.

Data set [3] deals with T1, hTMPK. The data set is described as follows: Inhibition constant (Ki) by NADH-coupled TMPK assay. Format: biochemical. The following applies: pre-incubated with 0.5 μg purified hTMPK for 10 min. On the procedure: as §2
For determination of inhibition constant (Ki value), the inhibitor at the indicated concentration was pre-incubated with 0.5 μg of purified hTMPK protein for 10 min, and the initial velocity of the TMPK reaction was measured in the presence of ATP (1 mM) and different concentrations of TMP (2-200 μM) or in the presence of TMP (200 μM) and different concentrations of ATP (5-1000 μM) using NADH-coupled TMPK assay as described in the Methods of the Invention section. The Ki value was calculated from an equation of Ki=[I]/(Vmax/Vmax^I−1) wherein [I] is the concentration of inhibitor, and Vmax^I is the maximal velocity in the presence of inhibitor.

The test system of data set [4] is Human RM osteosarcoma cells. The data set is described as follows: Colony formation analysis of osteosarcoma cells. Format: cell-based. Conditions: for effect on suppressing colony formation, single agent: compound 5 μM or doxorubicin 20 nM alone, 2 days, replated for 1 week; for colony formation, combination with doxorubicin: compound 5 μM plus doxorubicin 20 nM. On the procedure:
FIG. 5. The effect of TMPK inhibitors alone or in combination with a chemotherapeutic agent on viability of osteosarcoma cells. (A) Human RM osteosarcoma cells (a representative bone cancer cells) were seeded at 2×10^4/35 mm dish and treated with Doxorubicin (20 nM), compound I-d-7 (5 μM), compound I-d-6 (5 μM) as indicated. After 2 days, medium was replaced with fresh medium without drug and cells were replated to a 24-well plate at 600 cells/well for 1 week for colony formation analysis.

A further data set concerns MDA-MB231 cell. The data set can be described thus: Doxorubicin sensitization in MDA-MB231 cell treatment. The data set is classed as cell-based. The following applies: compound at 2 μM. As for the experimental part: Cells plated into a 96-well plate (10^3 cells/well) were treated and cell viability was measured by MTS assay (Promega) (Cory et al., 1991). An annexin V-fluorescein isothiocyanate (FITC) apoptosis kit (Calbiochem) was used to detect apoptosis.

The source of these data is US9662328B2, “Targeting human thymidylate kinase induces DNA repair toxicity in malignant tumor cells” (NATIONAL YANG-MING UNIVERSITY, priority 2010, dated 2017).

Each structure is given as a SMILES string. Values joined by “and” are separate entries in the source; they are usually repeats but may differ in a detail not shown here. Identical values can stand only once.

With `O=c1[nH]c(=O)n([C@H]2C[C@H](O)[C@@H](CO)O2)cc1F` [FdUrd, 5-fluoro-2′deoxyuridine], the “DNA lesions in nuclei (γH2AX foci)” value with HCT-116 p53−/− cells (YMU1 2 μM for 2 days, FdUrd 2 μM for 1 day) was “gave DNA lesions in nuclei”.
As for `O=C(NCC(=O)N1CCN(C(=O)Cn2sc3ncccc3c2=O)CC1)Nc1ccccc1` [I-b-1, 1-(2-Oxo-2-(4-(2-(3-oxoisothiazolo[5,4-b]pyridin-2(3H)-yl)acetyl)piperazin-1-yl)ethyl)-3-phenylurea], at hTMPK [1], the inhibition (commonly the relative decrease from the control value, in per cent) at 2 µM amounted to 54 ± 7%. For the same compound, at hTMPK [2], 1.81 ± 0.28 µM corresponded to half-maximal inhibition (IC50).
In turn, `Cc1cc(C)c2c(=O)n(CC(=O)N3CCN(C(=O)Cn4sc5nc(C)cc(C)c5c4=O)CC3)sc2n1` [I-b-4, 1,4-Bis[(3-oxo-4,6-dimethylisothiazolo[5,4-b]pyridin-2-yl)acetyl]piperazine] yielded an inhibition at 2 µM against hTMPK [1] of 32 ± 2%. Moreover, on hTMPK [2], the IC50 (as a rule, the point on the concentration scale where inhibition reaches its midpoint) is 0.8 µM.
`Cc1cc(C)c2c(=O)n(CC(=O)N3CCN(C(=O)Cn4sc5ccccc5c4=O)CC3)sc2n1` [I-b-5, 4-[(3-Oxo-benzo[d]isothiazol-2-yl)acetyl]-1-[(4,6-dimethyl-3-15 oxoisothiazolo[5,4-b]pyridin-2-yl)acetyl]piperazine] displayed an inhibition at 2 µM at hTMPK [1] of 79 ± 12%. Also, the Ki – broadly, a measure of affinity in units of concentration, obtained from inhibition or displacement – at hTMPK [3] is 0.17 ± 0.07 µM.
With `Cc1cc(N)nc2sn(CC(=O)N3CCN(C(=O)Cn4sc5nc(N)cc(C)c5c4=O)CC3)c(=O)c12` [I-b-6, 1,4-Bis[(6-amino-4-methyl-3-oxoisothiazolo[5,4-b]pyridin-2-yl)acetyl]piperazine], the inhibition at 2 µM on hTMPK [1] was found to be 48 ± 5%. At hTMPK [2], this compound came in with a 50% inhibitory concentration (IC50) of 1.1 µM.
As to `CC(C)(C)OC(=O)N1CCN(C(=O)Cn2sc3ccc(F)cc3c2=O)CC1` [I-d-6, Tert-butyl 4-(2-(5-fluoro-3-oxobenzo[d]isothiazol-2(3H)-yl)acetyl)piperazine-1-carboxylate], 2 µM produced 87 ± 5% inhibition against hTMPK [1]. Besides, in data set [4], the “effect on suppressing colony formation, single agent” value (“effect” below) is “significant effect on suppressing colony formation” and the “colony formation, combination with doxorubicin” value was “further decreased colony formation”.
For `CC(C)(C)OC(=O)N1CCN(C(=O)Cn2sc3cc(F)ccc3c2=O)CC1` [I-d-7, Tert-butyl 4-(2-(6-fluoro-3-oxobenzo[d]isothiazol-2(3H)-yl)acetyl)piperazine-1-carboxylate], at 2 µM the inhibition against hTMPK [1] was 66 ± 7%. Moreover, in data set [4], the “effect” value was “significant effect on suppressing colony formation” and the “colony formation, combination with doxorubicin” value is listed as “further decreased colony formation”.
`O=C(NCC(=O)N1CCN(C(=O)Cn2sc3ccccc3c2=O)CC1)Nc1ccccc1` [I-e-5, 1-(2-Oxo-2-(4-(2-(3-oxobenzo[d]isothiazol-2(3H)-yl)acetyl)piperazin-1-yl)ethyl)-3-phenylurea] yielded an inhibition at 2 µM against hTMPK [1] of 100 ± 7%. Also, the IC50 on hTMPK [2] is 1.29 µM and 1.73 µM.
Compound `O=C(Cn1sc2ccccc2c1=O)N1CCN(C(=O)Cn2sc3ccccc3c2=O)CC1` [I-e-8, 1,4-Bis[(3-oxo-benzo[d]isothiazol-2-yl)acetyl]piperazine] showed an inhibition at 2 µM on hTMPK [1] of 89 ± 6%. Further, on hTMPK [2], the IC50 was determined as 0.45 µM.
Take `CCOC(=O)N1CCN(C(=O)Cn2sc3nc(C)cc(C)c3c2=O)CC1` [YMU1, reference compound]: testing at 2 µM against hTMPK [1] gave an inhibition of 42 ± 15%. Besides, the IC50 at hTMPK [2] worked out at 2.21 ± 0.06 µM. Further, in the data set with HCT-116 p53−/− cells (human, 2 μM), the “DNA lesions in nuclei (γH2AX foci)” value was “not”.
Regarding `CCOC(=O)N1CCN(C(=O)Cn2sc3nc(C)cc(C)c3c2=O)CC1` [YMU1], the “enhancement on doxorubicin sensitization” value with MDA-MB231 cell came to 30 fold.
Regarding `COc1cccc2c1C(=O)c1c(O)c3c(c(O)c1C2=O)C[C@@](O)(C(=O)CO)C[C@@H]3O[C@H]1C[C@H](N)[C@H](O)[C@H](C)O1` [doxorubicin, reference compound], the “effect” value in data set [4] is recorded as “no effect”.
